Experimental data reported in ChEMBL document CHEMBL1697821, “Development of a phospholipidosis database and predictive quantitative structure-activity relationship (QSAR) models” (Toxicol Mech Methods, 2008).

The compounds below were run on Phospholipidosis (assay: Literature-mined public compounds from Kruhlak et al phospholipidosis modelling dataset).

| Compound | Phospholipidosis |
| --- | --- |
| CC1COc2c(N3CCN(C)CC3)c(F)cc3c(=O)c(C(=O)O)cn1c23 (centres undefined) [OFLOXACIN] | Negative: confirmed by electron microscopy |
| Cc1cc2c(s1)Nc1ccccc1N=C2N1CCN(C)CC1 [OLANZAPINE] | Negative: based on the absence of positive reported data from WMDD |
| O=C(O)c1cc(/N=N/c2ccc(O)c(C(=O)O)c2)ccc1O [OLSALAZINE] | Negative: based on the absence of positive reported data from WMDD |
| COc1ccc2[nH]c([S+]([O-])Cc3ncc(C)c(OC)c3C)nc2c1 (centres undefined) [OMEPRAZOLE] | Negative: based on the absence of positive reported data from WMDD |
| OCCN1CCN(CCCN2c3ccccc3C=Cc3ccccc32)CC1 [OPIPRAMOL] | Negative: based on the absence of positive reported data from WMDD |
| CC(C)NCC1CCc2cc(CO)c([N+](=O)[O-])cc2N1 (centres undefined) [OXAMNIQUINE] | Negative: based on the absence of positive reported data from WMDD |
| C[C@]12COC(=O)C[C@@H]1CC[C@@H]1[C@@H]2CC[C@@]2(C)[C@H]1CC[C@]2(C)O [OXANDROLONE] | Negative: based on the absence of positive reported data from WMDD |
| CC[N+]1(C)[C@@H]2CC(OC(=O)[C@H](CO)c3ccccc3)C[C@H]1[C@@H]1O[C@@H]12.[Br-] (some centres undefined) [OXITROPIUM BROMIDE] | Negative: based on the absence of positive reported data from WMDD |
| CCN(CC)CCc1nc(-c2ccccc2)no1 [OXOLAMINE] | Negative: based on the absence of positive reported data from WMDD |
| CCn1cc(C(=O)O)c(=O)c2cc3c(cc21)OCO3 [OXOLINIC ACID] | Negative: based on the absence of positive reported data from WMDD |
| CN1CC[C@]23c4c5ccc(O)c4O[C@H]2C(=O)CC[C@@]3(O)[C@H]1C5 [OXYMORPHONE] | Negative: based on the absence of positive reported data from WMDD |
| CC(C)(CO)[C@@H](O)C(=O)NCCC(=O)O [PANTOTHENIC ACID] | Negative: based on the absence of positive reported data from WMDD |
| CCC1(C)OC(=O)N(C)C1=O (centres undefined) [PARAMETHADIONE] | Negative: based on the absence of positive reported data from WMDD |
| C#CCN(C)Cc1ccccc1 [PARGYLINE] | Negative: based on the absence of positive reported data from WMDD |
| CCC(=O)c1ccc(O)cc1 [PAROXYPROPIONE] | Negative: based on the absence of positive reported data from WMDD |
| CC1(C)S[C@@H]2[C@H](NC(=O)COc3ccccc3)C(=O)N2[C@H]1C(=O)O [PENICILLIN V] | Negative: based on the absence of positive reported data from WMDD |
| CCCC(C)C1(CC)C(=O)NC(=O)NC1=O (centres undefined) [PENTOBARBITAL] | Negative: based on the absence of positive reported data from WMDD |
| CC(=O)CCCCn1c(=O)c2c(ncn2C)n(C)c1=O [PENTOXIFYLLINE] | Negative: based on the absence of positive reported data from WMDD |
| CCCN1C[C@H](CSC)C[C@@H]2c3cccc4[nH]cc(c34)C[C@H]21 [PERGOLIDE] | Negative: based on the absence of positive reported data from WMDD |
| C1CCC(C(CC2CCCCN2)C2CCCCC2)CC1 (centres undefined) [PERHEXILINE] | Positive: strong inducer confirmed by electron microscopy |
| CCC[C@H](N[C@@H](C)C(=O)N1[C@H](C(=O)O)C[C@@H]2CCCC[C@@H]21)C(=O)OCC [PERINDOPRIL] | Negative: based on the absence of positive reported data from WMDD |
| OCCN1CCN(CCCN2c3ccccc3Sc3ccc(Cl)cc32)CC1 [PERPHENAZINE] | Negative: based on the absence of positive reported data from WMDD |

| Compound | Phospholipidosis |
| --- | --- |
| NC(=O)NC(=O)Cc1ccccc1 [PHENACEMIDE] | Negative: based on the absence of positive reported data from WMDD |
| CCOc1ccc(NC(C)=O)cc1 [PHENACETIN] | Positive: strong inducer confirmed by electron microscopy |
| Nc1ccc(/N=N/c2ccccc2)c(N)n1 [PHENAZOPYRIDINE] | Negative: based on the absence of positive reported data from WMDD |
| C[C@H]1[C@H](c2ccccc2)OCCN1C [PHENDIMETRAZINE] | Negative: based on the absence of positive reported data from WMDD |
| CC(Oc1ccccc1)C(=O)N[C@@H]1C(=O)N2[C@@H]1SC(C)(C)[C@@H]2C(=O)O (some centres undefined) [PHENETHICILLIN] | Negative: based on the absence of positive reported data from WMDD |
| CN1CCC2=C(C1)C(c1ccccc1)c1ccccc12 (centres undefined) [PHENINDAMINE] | Negative: based on the absence of positive reported data from WMDD |
| O=C1c2ccccc2C(=O)C1c1ccccc1 [PHENINDIONE] | Negative: based on the absence of positive reported data from WMDD |
| CN(C)CCC(c1ccccc1)c1ccccn1 (centres undefined) [PHENIRAMINE] | Negative: based on the absence of positive reported data from WMDD |
| CCC1(c2ccccc2)C(=O)NC(=O)NC1=O [PHENOBARBITAL] | Negative: confirmed by electron microscopy |
| O=C1OC(c2ccc(O)cc2)(c2ccc(O)cc2)c2ccccc21 [PHENOLPHTHALEIN] | Negative: based on the absence of positive reported data from WMDD |
| CCC(c1ccccc1)c1c(O)c2ccccc2oc1=O (centres undefined) [PHENPROCOUMON] | Negative: based on the absence of positive reported data from WMDD |
| CC(C)(N)Cc1ccccc1 [PHENTERMINE] | Positive: weak inducer based on presence of foamy macrophages and cytoplasmic vacuolations |
| Cc1ccc(N(CC2=NCCN2)c2cccc(O)c2)cc1 [PHENTOLAMINE] | Negative: based on the absence of positive reported data from WMDD |
| CC[C@@H]1C(=O)OC[C@@H]1Cc1cncn1C [PILOCARPINE] | Negative: based on the absence of positive reported data from WMDD |
| CC(C)NCC(O)COc1cccc2[nH]ccc12 (centres undefined) [PINDOLOL] | Negative: based on the absence of positive reported data from WMDD |
| CC[N+]1(C)CCCC(OC(=O)C(O)(c2ccccc2)c2ccccc2)C1.[Br-] (centres undefined) [PIPENZOLATE BROMIDE] | Negative: based on the absence of positive reported data from WMDD |
| CC(C(=O)O)c1ccc2c(c1)Cc1cccnc1O2 (centres undefined) [PRANOPROFEN] | Negative: based on the absence of positive reported data from WMDD |
| C[C@]12C=CC(=O)C=C1CC[C@@H]1[C@@H]2[C@@H](O)C[C@@]2(C)[C@H]1CC[C@]2(O)C(=O)COC(=O)CCC(=O)O [PREDNISOLONE HEMISUCCINATE] | Negative: based on the absence of positive reported data from WMDD |
| CCCCC(=O)O[C@]1(C(=O)COC(C)=O)CC[C@H]2[C@@H]3CCC4=CC(=O)C=C[C@]4(C)[C@H]3[C@@H](O)C[C@@]21C [PREDNISOLONE VALERATE ACETATE] | Negative: based on the absence of positive reported data from WMDD |
| CC(C)NC[C@H](O)COc1ccc(O)cc1 [PRENALTEROL] | Negative: based on the absence of positive reported data from WMDD |
| CC(Cc1ccccc1)NCCC(c1ccccc1)c1ccccc1 (centres undefined) [PRENYLAMINE] | Positive: weak inducer based on presence of foamy macrophages and cytoplasmic vacuolations |
| CCCN(CCC)S(=O)(=O)c1ccc(C(=O)O)cc1 [PROBENECID] | Negative: based on the absence of positive reported data from WMDD |
